The target in this test is T1, Recombinant human N-His6-IDE42-1019 (Homo sapiens, UniProt P14735).
T1 construct: Recombinant human N-His6-IDE42-1019(R&D Systems); His6 (N); purchased R&D Systems
T1 sequence (P14735 42-1019): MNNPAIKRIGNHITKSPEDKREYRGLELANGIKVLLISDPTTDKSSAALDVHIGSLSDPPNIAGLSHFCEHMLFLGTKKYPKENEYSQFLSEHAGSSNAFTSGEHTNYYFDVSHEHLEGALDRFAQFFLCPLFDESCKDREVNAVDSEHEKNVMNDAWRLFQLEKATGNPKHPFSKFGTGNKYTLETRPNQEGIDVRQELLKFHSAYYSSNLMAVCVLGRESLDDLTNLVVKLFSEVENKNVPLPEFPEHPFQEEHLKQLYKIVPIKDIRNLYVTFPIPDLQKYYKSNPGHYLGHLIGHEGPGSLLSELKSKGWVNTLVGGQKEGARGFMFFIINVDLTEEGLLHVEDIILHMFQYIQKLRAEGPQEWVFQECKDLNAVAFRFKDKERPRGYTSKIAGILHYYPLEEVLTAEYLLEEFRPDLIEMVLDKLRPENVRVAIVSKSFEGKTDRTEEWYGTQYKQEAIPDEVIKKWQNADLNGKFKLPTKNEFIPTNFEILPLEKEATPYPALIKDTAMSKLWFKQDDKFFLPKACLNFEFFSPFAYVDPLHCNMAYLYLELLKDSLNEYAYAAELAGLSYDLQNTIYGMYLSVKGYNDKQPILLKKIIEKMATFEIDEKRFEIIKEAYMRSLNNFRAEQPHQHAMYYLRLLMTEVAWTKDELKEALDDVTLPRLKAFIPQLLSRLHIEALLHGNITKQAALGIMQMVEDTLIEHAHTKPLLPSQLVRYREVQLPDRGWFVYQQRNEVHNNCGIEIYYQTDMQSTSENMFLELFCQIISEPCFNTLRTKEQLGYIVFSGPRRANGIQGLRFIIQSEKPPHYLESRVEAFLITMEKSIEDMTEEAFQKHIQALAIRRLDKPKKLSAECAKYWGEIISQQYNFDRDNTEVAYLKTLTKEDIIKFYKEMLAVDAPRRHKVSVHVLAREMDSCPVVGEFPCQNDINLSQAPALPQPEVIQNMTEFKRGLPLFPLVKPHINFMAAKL
The test is described as follows: IDE inhibition assay with fluorogenic decapeptide substrate Mca-RPPGFSAFK(Dnp)-OH. The settings on record: fluorogenic decapeptide cleavage assay; for pIC50: DNA-free macrocycle; for IDE inhibition, potency in words: comparison with reference inhibitors. It is filed as biochemical. The method, then: Recombinant human N-His6-IDE42-1019(R&D Systems) was assayed using the fluorophore/quencher-tagged peptide substrate Mca-RPPGFSAFK(Dnp)-OH (R&D) according to the manufacturer's instructions and using the recommended buffer 50 mM Tris, pH 7.5, 1 M NaCl (fluorophore Mca=(7-methoxycourmarin-4-yl)acetyl and quencher Dnp=2,4-dinitrophenyl). The enzyme mixture (48 μL) was transferred to a 96-well plate and combined with 2 μL of inhibitor in DMSO solutions, as 3-fold dilution series. The mixtures were allowed to equilibrate for 5 minutes and the enzymatic reaction was started by addition of substrate peptide in assay buffer (50 μL), immediately mixed by orbital shaking, and monitored on a fluorescence plate reader (excitation at 320 nm, emission at 405 nm). […] Inhibitor 6bK was used as a positive control in each assay, and error bars correspond to the standard error.

The results in this text go back to patent US11674136B2, “DNA-templated macrocycle library” (President and Fellows of Harvard College, priority 2018, dated 2023).

The term pIC50 denotes the negative decadic logarithm of the IC50, by convention in mol/L.

pIC50: −log10 of the molar value. “Also recorded” adds a separate entry of the source.

Take `NCCOCCNC(=O)C1CCNC(=O)C=CC(=O)NC(Cc2ccccc2C(F)(F)F)C(=O)NC(CC2CCCCC2)C(=O)NC(Cc2ccc(C(=O)c3ccccc3)cc2)C(=O)N1` (stereo not drawn) [cis-DJIR]: the negative logarithm of the IC50 (pIC50) was 7.40; the “IDE inhibition, potency in words” value is “equipotent to the structurally similar trans-6bK and trans-6bA macrocycles; also recorded: at least as potent that 6bK”.

With `CC1NC(=O)C=CC(=O)NC(C(=O)NCCOCCN)Cc2cccc(c2)CNC(=O)C(Cc2ccc(C(=O)c3ccccc3)cc2)NC(=O)C(CC2CCCCC2)NC1=O` (stereo not drawn) [trans-DJPM], the negative logarithm of the IC50 (pIC50) was 7.30; the “IDE inhibition, potency in words” value was “equipotent to the structurally similar trans-6bK and trans-6bA macrocycles; also recorded: comparable in potency to our previously optimized 20-membered inhibitor 6bK; also recorded: equipotent to the previously optimized IDE inhibitor 6bK”.

Consider `NCCOCCNC(=O)C1Cc2ccccc2CNC(=O)CC(Cc2ccccc2)NC(=O)C(Cc2ccco2)NC(=O)CN2CCN(CC2)C(=O)C=CC(=O)N1` (stereo not drawn) [cis-CODVV], for which the pIC50 is 4.52.
